Measurements as given in PMC12040169 (PLOS Biology, 2025).

Assay: in vitro
Settings: human, hela cells, % viability

| Compound | viability at 28.5 h, 10 µM [%] |
| --- | --- |
| Cc1nnc(SCC(=O)Nn2c(-c3ccccc3)nc3ccccc3c2=O)[nH]1 [CBK268841] | 86.8 |
| COc1cc(/C=C2\SC(=S)N(CC(=O)NNC(=O)c3ccccc3O)C2=O)ccc1O [CBK261301] | 94 |
| COc1ccc(-c2ccc(OCCNC(=O)c3cccc(F)c3)nn2)cc1 [CBK294428] | 87.1 |
| O=C1CNC(=O)C2(C/C=C/C[C@H]3COCC[C@H]3N1)CCN(C(=O)C1CCOCC1)CC2 [CBK292143] | 84.9 |
| CC1(C)CC(NCC(O)COc2cc(C(C)(C)C)c(O)c(C(C)(C)C)c2)CC(C)(C)N1 (centres unmarked) [CBK264564] | 124 |
| Cc1ccc2cc(S(=O)(=O)NCCCC(=O)O)ccc2c1 [CBK299818] | 95.8 |
| O=C(NCC1COc2ccccc2O1)C1(c2ccccc2)CCCC1 (centres unmarked) [CBK149524] | 93.8 |
| CNC(=O)CCCc1[nH]nc(O)c1Cc1c(Cl)cccc1Cl [CBK085827] | 89.4 |
| Nc1ccc(-c2cccc(C(F)(F)F)c2)c2ccccc12 [CBK084324] | 80 |
| CN1CCN(c2cccc(-c3ccc(CNC(=O)OC(C)(C)C)cc3)n2)CC1 [CBK037641] | 95.2 |
| O=C(NCc1cccc(C(F)(F)F)c1)N1CCCCC1CO (centres unmarked) [CBK156165] | 90.7 |
| O=C(O)COc1ccccc1/C=N/n1c(S)nnc1-c1ccc(Cl)cc1Cl [CBK264418] | 89.5 |
| NC(=O)CN1CC2(CCN(C(=O)OCc3ccccc3)CC2)c2ccccc21 [CBK116309] | 94.4 |
| O=C1NCC2(CCN(C(=O)C3CC3)CC2)Oc2ccccc21 [CBK282918] | 101 |
| COc1ccc2[nH]c(=O)c(CNc3ccc4c(c3)-c3ccccc3S(=O)(=O)N4)cc2c1 [CBK286409] | 84.2 |
| CC1CCCN(c2nc3nc[nH]c(=O)c3s2)C1 (centres unmarked) [CBK288120] | 83.4 |
| Cc1cnoc1-c1cc(Cl)cc(Cl)c1O [CBK015870] | 89.3 |
| COc1ccc(CN2CC=CC2C(=O)O)cc1Cn1cncn1 (centres unmarked) [CBK307524] | 76.2 |
| O=C(CCc1ccc(-c2ccc(F)cc2)o1)Nc1ccc(C(=O)O)cc1 [CBK300502] | 99 |
| CCOC(=O)Cn1ncc2c3sc(C)cc3n(C)c2c1=O [CBK282388] | 96.2 |
| COC(=O)c1cccn2cc(CN3CCSC(C)C3)nc12 (centres unmarked) [CBK304958] | 97.4 |
| COc1ccc(C(O)Cn2c(=N)n(CCN3CCCCC3)c3ccccc32)cc1 (centres unmarked) [CBK262930C] | 98.8 |

| Compound | viability at 28.5 h, 10 µM [%] |
| --- | --- |
| COc1ncc(-c2nccnc2OC)c(OC)n1 [CBK106744] | 94.2 |
| COc1ccc(C(=O)Nc2c(OC)cc(F)cc2OC2CCNCC2)cc1 [CBK050294T] | 97 |
| Nc1ncnc2c1ncn2[C@H]1C[C@@H](O)[C@@H](CO)O1 [CBK201382] | 94.9 |
| O=C(c1c[nH]nc1-c1cc2ccccc2o1)N1CCC(O)(C(F)(F)F)C1 (centres unmarked) [CBK305549] | 90.7 |
| Cc1nnc(SCC(=O)N/N=C/c2ccc(-c3ccc(Br)cc3)o2)n1-c1ccccc1 [CBK262769] | 104 |
| CCn1cc(C(=O)O)c(=O)c2cc(F)c(N3CCN(C(=O)c4ccc(C)cc4)CC3)cc21 [CBK286986] | 99.6 |
| CC1CCc2c(sc3ncnc(NCCCN4CCCCCC4=O)c23)C1 (centres unmarked) [CBK305947] | 85.4 |
| FC(F)(F)Oc1ccc(-c2nccnc2OCC2COc3ccccc3O2)cc1 (centres unmarked) [CBK106845] | 97.7 |
| CC(Cc1ccc(N(C)C)cc1)NC(=O)C1CN(S(=O)(=O)c2ccc(F)cc2)C1 (centres unmarked) [CBK285942] | 114 |
| CCc1nn(CC(=O)NC2CC2)c(=O)c2cc3sccc3n12 [CBK284029] | 88.7 |
| CC(NC(=O)CCc1ccncc1)c1nc2ccccc2s1 (centres unmarked) [CBK281666] | 98.9 |
| Cc1ccc(Cn2nc(C)c(NC(=O)c3nc4ncccn4n3)c2C)cc1 [CBK268912] | 90.9 |
| CS(=O)(=O)N1CCC(c2nc(-c3ccc(C(F)(F)F)cc3)c3ccccn23)CC1 [CBK036006] | 86.4 |
| Nc1ccc2cc(-c3cccc(OCc4ccccc4)c3)cnc2n1 [CBK081172] | 108 |
| Cn1cc(-c2nc(C3COCCN3Cc3c(F)cccc3Cl)no2)cn1 (centres unmarked) [CBK305441] | 79.4 |
| CC1CCN(C(=O)CCn2c(C(F)F)cc3cccnc32)CC1 [CBK284982] | 85.6 |
| O=C(O)COCC(=O)N1CCN(c2ccccc2Cl)CC1 [CBK268155] | 108 |
| CN(C)c1cccc2c(S(=O)(=O)n3c(=O)n(Cc4ccc(S(C)(=O)=O)cc4)c4ccccc43)cccc12 [CBK106535] | 103 |
| CCN1CCCCC1CNC(=O)c1n[nH]c2c1CCC2 (centres unmarked) [CBK282207] | 96.2 |
| CN(CC(=O)Nc1cnc(-c2ccc(F)cc2)c(-c2ccco2)n1)S(=O)(=O)c1ccccc1 [CBK037214] | 100 |
| Cc1cccc2cc(CN(Cc3cccnc3)C(=O)Nc3ccccc3Cl)c(=O)[nH]c12 [CBK108869] | 97.9 |
| Cc1ccc(S(=O)(=O)OC[C@H]2O[C@@H](n3ccc(=O)[nH]c3=O)C[C@H]2O)cc1 [CBK201283] | 95.7 |
